Results from ChEMBL document CHEMBL1135807, “2,5'-Disubstituted adenosine derivatives: evaluation of selectivity and efficacy for the adenosine A(1), A(2A), and A(3) receptor” (J Med Chem, 2002).

How the values were obtained:
Adenosine receptor A2a [1] = biological target: Adenosine receptor A2a (Rattus norvegicus, UniProt P30543)
Description: Binding affinity at Adenosine A2A receptor in rat striatal membrane by [3H]ZM-241385 displacement.

[2] = biological target: T1, Adenosine receptor A1 (Rattus norvegicus) (UniProt P25099); assay: Displacement of [3H]DPCPX from Adenosine A1 receptor in rat cortical membrane at 10e-5 M; type: cell membranes
T1 sequence (whole entry): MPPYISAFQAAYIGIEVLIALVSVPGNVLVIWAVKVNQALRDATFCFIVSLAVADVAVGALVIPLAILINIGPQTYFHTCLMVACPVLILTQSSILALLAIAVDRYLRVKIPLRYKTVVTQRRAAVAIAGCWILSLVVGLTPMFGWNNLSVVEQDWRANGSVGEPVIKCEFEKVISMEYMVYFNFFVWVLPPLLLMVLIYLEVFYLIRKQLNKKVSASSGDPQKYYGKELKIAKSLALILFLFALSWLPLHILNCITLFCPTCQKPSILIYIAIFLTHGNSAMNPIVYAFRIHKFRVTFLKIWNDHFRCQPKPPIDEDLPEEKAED

Adenosine receptor A2a [3] = biological target: Adenosine receptor A2a (Homo sapiens, UniProt P29274); assay: G-protein activation in human Adenosine A2A receptor expressed in CHO cells using cAMP assay; type: functional, cell-based
Adenosine receptor A3 = biological target: T2, Adenosine receptor A3 (Homo sapiens, UniProt P0DMS8); assay: biochemical
T2 sequence (P0DMS8 whole entry): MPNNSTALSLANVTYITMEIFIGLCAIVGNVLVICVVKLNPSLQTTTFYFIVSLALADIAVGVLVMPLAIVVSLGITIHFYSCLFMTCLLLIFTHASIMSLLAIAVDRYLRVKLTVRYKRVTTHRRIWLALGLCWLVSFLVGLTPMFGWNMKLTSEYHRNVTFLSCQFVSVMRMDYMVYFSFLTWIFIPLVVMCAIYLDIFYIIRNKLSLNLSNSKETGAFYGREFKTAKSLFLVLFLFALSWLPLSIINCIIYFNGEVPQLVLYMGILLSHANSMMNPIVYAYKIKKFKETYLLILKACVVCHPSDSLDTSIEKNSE
Description: Binding affinity at human Adenosine A3 receptor expressed in HEK 293 cells by [125I]-AB MECA displacement.

[4] = biological target: T3, Adenosine receptor A3 (Homo sapiens) (UniProt P0DMS8); assay: % inhibition of forskolin induced (10 uM) cAMP production compared to C1-IB-MECA through Adenosine A3 receptor expressed in CHO cells at 30 uM; type: functional, cell-based
T3 sequence (whole entry): T2 sequence (P0DMS8 whole entry)

[5] = biological target: T1, Adenosine receptor A1 (Rattus norvegicus); assay: Ability to displace [3H]DPCPX from Adenosine A1 receptor in rat cortical membrane at 10e-5 M; type: cell membranes
Adenosine receptor A1 = biological target: T4, Adenosine receptor A1 (Rattus norvegicus, UniProt P25099); assay: Ability to displace [3H]DPCPX from Adenosine A1 receptor in rat cortical membrane; type: cell membranes
T4 sequence (P25099 whole entry): T1 sequence (whole entry)

[6] = biological target: T3, Adenosine receptor A3 (Homo sapiens); assay: Percent inhibition of forskolin induced (10 uM) cAMP production compared to C1-IB-MECA through Adenosine A3 receptor expressed in CHO cells at 100 uM; type: functional, cell-based

Adenosine receptor A2a (Rattus norvegicus, UniProt P30543), sequence (P30543 whole entry): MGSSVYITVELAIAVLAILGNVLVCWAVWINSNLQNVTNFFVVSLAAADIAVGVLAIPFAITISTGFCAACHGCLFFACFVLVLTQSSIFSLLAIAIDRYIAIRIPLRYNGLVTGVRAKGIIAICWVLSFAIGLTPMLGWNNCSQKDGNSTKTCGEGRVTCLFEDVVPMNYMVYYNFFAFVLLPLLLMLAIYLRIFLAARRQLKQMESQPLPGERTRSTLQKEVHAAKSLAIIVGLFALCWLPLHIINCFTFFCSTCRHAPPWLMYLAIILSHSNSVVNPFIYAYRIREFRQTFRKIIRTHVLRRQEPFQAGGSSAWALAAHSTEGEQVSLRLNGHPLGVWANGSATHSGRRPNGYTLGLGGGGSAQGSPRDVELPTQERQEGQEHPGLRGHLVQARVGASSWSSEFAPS
Adenosine receptor A2a (Homo sapiens, UniProt P29274), sequence (P29274 whole entry): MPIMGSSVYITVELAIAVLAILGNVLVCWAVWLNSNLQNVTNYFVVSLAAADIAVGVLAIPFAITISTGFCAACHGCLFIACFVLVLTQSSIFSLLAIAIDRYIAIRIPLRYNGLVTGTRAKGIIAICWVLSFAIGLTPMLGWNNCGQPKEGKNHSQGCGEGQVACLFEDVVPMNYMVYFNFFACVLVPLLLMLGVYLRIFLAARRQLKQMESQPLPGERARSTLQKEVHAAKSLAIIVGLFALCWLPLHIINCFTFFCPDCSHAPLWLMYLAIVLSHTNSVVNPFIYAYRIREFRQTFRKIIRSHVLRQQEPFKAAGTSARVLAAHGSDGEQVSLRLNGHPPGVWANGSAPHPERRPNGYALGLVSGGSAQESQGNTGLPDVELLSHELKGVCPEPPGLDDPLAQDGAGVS

Row | Structure (SMILES) | Ki (Adenosine receptor A2a [1]) [nM] | Displacement [2] [%] | EC50 (Adenosine receptor A2a [3]) [nM] | Ki (Adenosine receptor A3) [nM] | Emax [4] [%] | Displacement [5] [%] | Ki (Adenosine receptor A1) [nM] | Emax [6] [%]
1 | CSC[C@H]1O[C@@H](n2cnc3c(N)nc(I)nc32)[C@H](O)[C@@H]1O | 3900 | – | – | – | – | – | – | –
2 | CC(C)C/C=N/Nc1nc(N)c2ncn([C@@H]3O[C@H](CSC(C)C)[C@@H](O)[C@H]3O)c2n1 | 1800 | 13 | 10400 | 409 | 26 | – | – | –
3 | CC(C)SC[C@H]1O[C@@H](n2cnc3c(N)nc(I)nc32)[C@H](O)[C@@H]1O | 820 | – | – | – | – | 56.2 | – | –
4 | CCCSC[C@H]1O[C@@H](n2cnc3c(N)nc(I)nc32)[C@H](O)[C@@H]1O | 440 | – | – | – | – | – | 1050 | –
5 | CSC[C@H]1O[C@@H](n2cnc3c(N)nc(N/N=C/CC(C)C)nc32)[C@H](O)[C@@H]1O | 220 | – | 5000 | 253 | 41 | 18.9 | – | –
6 | CCSC[C@H]1O[C@@H](n2cnc3c(N)nc(N/N=C/CC(C)C)nc32)[C@H](O)[C@@H]1O | 500 | – | 7500 | 814 | – | 21.2 | – | 7
7 | CCSC[C@H]1O[C@@H](n2cnc3c(N)nc(I)nc32)[C@H](O)[C@@H]1O | 1200 | – | – | – | – | – | 386 | –
8 | Nc1nc(I)nc2c1ncn2[C@@H]1O[C@H](CO)[C@@H](O)[C@H]1O | – | – | – | – | – | 36.1 | – | –
9 | CCCSC[C@H]1O[C@@H](n2cnc3c(N)nc(N/N=C/CC(C)C)nc32)[C@H](O)[C@@H]1O | 1500 | – | 12900 | 697 | – | 22 | – | 16

Second part, the compound after the results:

Row | Ki (Adenosine receptor A2a [1]) [nM] | Displacement [2] [%] | EC50 (Adenosine receptor A2a [3]) [nM] | Ki (Adenosine receptor A3) [nM] | Emax [4] [%] | Displacement [5] [%] | Ki (Adenosine receptor A1) [nM] | Emax [6] [%] | Structure (SMILES)
10 | 220 | – | 3600 | – | – | – | 1270 | – | CCCCC#Cc1nc(N)c2ncn([C@@H]3O[C@H](CSC(C)C)[C@@H](O)[C@H]3O)c2n1
11 | 110 | – | 500 | – | – | – | 2180 | – | CCCCC#Cc1nc(N)c2ncn([C@@H]3O[C@H](CSCC)[C@@H](O)[C@H]3O)c2n1
12 | 170 | 46.5 | 800 | – | – | – | – | – | CCCCC#Cc1nc(N)c2ncn([C@@H]3O[C@H](CSCCC)[C@@H](O)[C@H]3O)c2n1
13 | 60 | – | 700 | – | – | – | – | – | CCCCC#Cc1nc(N)c2ncn([C@@H]3O[C@H](CSC)[C@@H](O)[C@H]3O)c2n1
14 | 20 | – | 1100 | 38.3 | – | 18.9 | – | – | CC(C)C/C=N/Nc1nc(N)c2ncn([C@@H]3O[C@H](CO)[C@@H](O)[C@H]3O)c2n1
